Key:
[1] = target: T1, Estrogen receptor (Homo sapiens, UniProt P03372)
T1 sequence (P03372 whole entry): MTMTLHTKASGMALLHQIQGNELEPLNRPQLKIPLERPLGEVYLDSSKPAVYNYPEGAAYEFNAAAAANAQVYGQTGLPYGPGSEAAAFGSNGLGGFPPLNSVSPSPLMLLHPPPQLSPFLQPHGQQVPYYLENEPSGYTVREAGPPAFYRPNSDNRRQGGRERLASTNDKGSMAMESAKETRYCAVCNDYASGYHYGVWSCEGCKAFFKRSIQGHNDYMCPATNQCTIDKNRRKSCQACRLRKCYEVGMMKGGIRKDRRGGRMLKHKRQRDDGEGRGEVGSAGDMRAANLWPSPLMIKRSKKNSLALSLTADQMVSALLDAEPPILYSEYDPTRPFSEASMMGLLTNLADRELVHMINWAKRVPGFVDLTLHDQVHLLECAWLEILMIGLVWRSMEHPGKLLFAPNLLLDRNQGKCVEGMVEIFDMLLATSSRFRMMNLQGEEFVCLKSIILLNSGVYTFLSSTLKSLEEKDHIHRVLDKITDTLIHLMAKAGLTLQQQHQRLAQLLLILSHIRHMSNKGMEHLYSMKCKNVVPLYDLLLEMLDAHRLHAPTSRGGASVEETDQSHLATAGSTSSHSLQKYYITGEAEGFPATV

[2] = system: Mus musculus; assay: Memory enhancement effect in C57BL/6 mouse assessed as time spent with novel object at 0.5 mg/kg, ip by novel object recognition test; assay type: functional
[3] = system: Mus musculus; assay: Memory enhancement effect in C57BL/6 mouse assessed as time spent with moved object at 0.5 mg/kg, ip by novel object recognition test; assay type: functional
[4] = target: T1, Estrogen receptor; remark: listed apart in the source

## OC[C@H]1CC[C@H](c2ccc(O)cc2)CC1
[1]
  EC50: > 10000 nM
[2]
  Time: 4.17 s
[3]
  Time: 3.93 s
[4]
  IC50: 2940 nM
